Measured values: patent US9468225B2, “Oral compositions” (Symrise AG, priority 2013, dated 2016)

Assays:
[1] = test system: differentiated CaCo-2 cells; test: Fatty acid uptake (BODIPY fatty acid) in differentiated CaCo-2 cells; type: cell-based, human; conditions: for Fatty acid uptake T/C [%]: 30 min preincubation, area below the curve over 60 min vs ethanol control
Procedure: The cell model used for short-term uptake of free fatty acids and long-term lipid accumulation in the adipocytes are murine fibroblasts (3T3-L1, ATTC Number CL-173) after the cells differentiated to form adipocytes. 3T3-L1 fibroblasts are cultivated at 37° C. and a 5% CO2 content with Dulbecco's Modified Eagle Medium (DMEM) having 10% FBS, 4% L-Glutamin and 1% Penicillin/Streptomycin (=basal medium). Adipocyte differentiation occurs two days after reaching confluence by adding 10 μg/L Insulin, 1 μM dexamethasone and 0.5 mM Isobutylmethylxanthin into the culture medium (=differentiation medium). After two days of cultivation in differentiation medium the adipocytes are allowed to mature for two further days by adding 10 μg/L insulin into the culture medium (=maturation medium). After having spent between three and five days in basal medium, the adipocytes are optimally differentiated and show by inclusion of lipid droplets the phenotype that is typical for adipocytes. Human colon cell line CaCo-2 (ATCC Number HTB-37) is used as a cell model for the uptake of free fatty acids by the small intestine after they have differentiated to form a phenotype corresponding to enterocytes. CaCo-2 cells are cultivated at 37° C. with a 5% CO2 content with Dulbecco's Modified Eagle Medium (DMEM) with 10% FBS, 2% L-glutamin and 1% penicillin/streptomycin. Enterocyte differentiation is performed by cultivating the cells in a period of 18 days after they reach confluence. After differentiation of the CaCo-2 cells to form an enterocyte phenotype, the cells are incubated with serum-free medium for an hour. Subsequently the cells are pre-treated with 0.1 μM, 1 μM and 10 μM t-pellitorine for 30 minutes and the free fatty acid uptake into the cells was measured by means of the fluorescence marked fatty acid BODIPY® (QBT Fatty Acid Up-take Corporation, Germany) at a fluorescence microplate reading device (Tecan, Ménnendorf, Switzerland) every 20 seconds for a period of 60 minutes. […] The results are represented as an area below the curve after measuring for 60 minutes in comparison to control (1, buffer with 0.1% ethanol). n=3, tR=2-3. Significant differences between the treatment and control were tested by means of a one-way ANOVA followed by a Holm-Sidak post hoc test and marked according to the following pattern: *p≦0.05; **p.≦0.01; ***p≦0.001

3T3-L1 cells [2] = test: Long time lipid accumulation (Oil-Red O) in 3T3-L1 adipocytes; type: cell-based, murine; conditions: 10 days treatment, vs ethanol control
Procedure: The cell model used for short-term uptake of free fatty acids and long-term lipid accumulation in the adipocytes are murine fibroblasts (3T3-L1, ATTC Number CL-173) after the cells differentiated to form adipocytes. 3T3-L1 fibroblasts are cultivated at 37° C. and a 5% CO2 content with Dulbecco's Modified Eagle Medium (DMEM) having 10% FBS, 4% L-Glutamin and 1% Penicillin/Streptomycin (=basal medium). Adipocyte differentiation occurs two days after reaching confluence by adding 10 μg/L Insulin, 1 μM dexamethasone and 0.5 mM Isobutylmethylxanthin into the culture medium (=differentiation medium). After two days of cultivation in differentiation medium the adipocytes are allowed to mature for two further days by adding 10 μg/L insulin into the culture medium (=maturation medium). After having spent between three and five days in basal medium, the adipocytes are optimally differentiated and show by inclusion of lipid droplets the phenotype that is typical for adipocytes. Human colon cell line CaCo-2 (ATCC Number HTB-37) is used as a cell model for the uptake of free fatty acids by the small intestine after they have differentiated to form a phenotype corresponding to enterocytes. CaCo-2 cells are cultivated at 37° C. with a 5% CO2 content with Dulbecco's Modified Eagle Medium (DMEM) with 10% FBS, 2% L-glutamin and 1% penicillin/streptomycin. Enterocyte differentiation is performed by cultivating the cells in a period of 18 days after they reach confluence. After differentiation of the 3T3-L1 fibroblasts to form adipocytes the cells are treated for 10 days with trans-pellitorine in concentrations of 0.001 μM, μM 0.1 μM, 1 μM and 10 μM and a final concentration of 10 μg/L insulin. […] The dye Oil-Red 0 is subsequently removed by means of 100% isopropanol, and absorption of the Oil-Red 0 solution, which behaves proportionally to the lipid droplets of the cells, was determined by means of a microplate reading device (Tecan, Ménnendorf, Switzerland). […]

[3] = test system: human neuroblastoma cells (SH-SY5Y); test: Dopamine release by SH-SY5Y cells after 3-minute stimulation with trans-pellitorine (Dopamin-ELISA, normalized to DNA); type: cell-based; conditions: for Dopamine release T/C [%]: relative to EtOH control, 3 min stimulation
Procedure: (§1) The cell model used for the release of the neurotransmitters dopamine and serotonin are human neuroblastoma cells (SH-SY5Y, ATCC Number CRL-2266). Cultivation is performed at 37° C. and with a 5% CO2 content using a mixture containing at equal parts Eagle's Minimum Essential Medium (MEM) and F12 Medium (each having 10% FBS and 1% Penicillin/Streptomycin). To measure the release of dopamine and serotonin, the cells are harvested with trypsin and seeded, after a vitality check using trypan blue tests, in a defined cell number in 35 mm cell culture dishes.
After a 3-minute stimulation of 1.25*10^6 of human neuroblastoma cells (SH-SY5Y) with 350 μL Krebs-Ringer-HEPES Puffer (1), pH 5, with or without the addition of trans-pellitorine (2) in concentrations of 0.001 μM, 0.1 μM, 1 μM and 10 μM the supernatant is acidified with 1 N HCl and the dopamine content is determined by means of an enzyme-based method of detection (Dopamin-ELISA, DLD Diagnostica, Hamburg, Germany). The cells are lysed with a buffer containing sodium lauryl sarcosinate and the DNAN content is determined by means of a NanoQuant plant (Tecan, Ménnendorf, Switzerland) for normalization of dopamine release. During an ethanol control (EtOH control) no trans-pellitorine is added to the Krebs-Ringer-HEPES buffer, but ethanol is added to the buffer such that a 0.1% ethanolic Krebs-Ringer-HEPES buffer solution is obtained.
FIG. 2 represents the release of dopamin after incubation with t-pellitorine (2) in concentrations of 0.001 μM, 0.1 μM, 1 μM and 10 μM. The results are represented in a […] expressed in percent (buffer with 0.1% ethanol). n=3, tR=2. Significant differences between the treatments and control were tested using a one-way ANOVA with a subsequent Holm-Sidak post hoc test and marked according to the following pattern: *p≦0.05; **p.≦0.01; ***p≦0.001.

3T3-L1 cells [4] = test: Fatty acid uptake (BODIPY fatty acid) in 3T3-L1 adipocytes; type: cell-based, murine; conditions: for Fatty acid uptake T/C [%]: 30 min preincubation, area below the curve over 60 min vs ethanol control
Procedure: The cell model used for short-term uptake of free fatty acids and long-term lipid accumulation in the adipocytes are murine fibroblasts (3T3-L1, ATTC Number CL-173) after the cells differentiated to form adipocytes. 3T3-L1 fibroblasts are cultivated at 37° C. and a 5% CO2 content with Dulbecco's Modified Eagle Medium (DMEM) having 10% FBS, 4% L-Glutamin and 1% Penicillin/Streptomycin (=basal medium). Adipocyte differentiation occurs two days after reaching confluence by adding 10 μg/L Insulin, 1 μM dexamethasone and 0.5 mM Isobutylmethylxanthin into the culture medium (=differentiation medium). After two days of cultivation in differentiation medium the adipocytes are allowed to mature for two further days by adding 10 μg/L insulin into the culture medium (=maturation medium). After having spent between three and five days in basal medium, the adipocytes are optimally differentiated and show by inclusion of lipid droplets the phenotype that is typical for adipocytes. Human colon cell line CaCo-2 (ATCC Number HTB-37) is used as a cell model for the uptake of free fatty acids by the small intestine after they have differentiated to form a phenotype corresponding to enterocytes. CaCo-2 cells are cultivated at 37° C. with a 5% CO2 content with Dulbecco's Modified Eagle Medium (DMEM) with 10% FBS, 2% L-glutamin and 1% penicillin/streptomycin. Enterocyte differentiation is performed by cultivating the cells in a period of 18 days after they reach confluence.
After differentiation of 3T3-L1 fibroblasts to form adipocytes, 65000 cells per well are seeded in a 96 well plate and incubated at 37° C. for four hours with basal medium (DMEM+10% fetal bovine serum) and then incubated for an hour with serum-free medium. The cells were pre-treated with 0.1 μM, 1 μM and 10 μM t-pellitorine for 30 minutes. The uptake of free fatty acids into the cells was measured by means of the fluorescence-marked fatty acid BODIPY® (QBT Fatty Acid Uptake Corporation, Germany) with a fluorescence microplate reading device (Tecan, Ménnendorf, Switzerland) every 20 seconds for a period of 60 minutes.
The results are represented as an area below the curve after measuring of 60 minutes in comparison with control (1, buffer with 0.1% Ethanol). n=3, tR=2-3. Significant differences between the treatment and control were tested by means of an one-way ANOVA followed by a Holm-Sidak post hoc test and marked according to the following pattern: *p≦0.05; **p.≦0.01; ***p≦0.001

[5] = test system: human neuroblastoma cells (SH-SY5Y); test: Serotonin release by SH-SY5Y cells after 3-minute stimulation with alkamides (Serotonin-ELISA, normalized to DNA); type: cell-based; conditions: for Serotonin release T/C [%]: relative to EtOH control, 3 min stimulation
Procedure: as §1
After a 3-minute stimulation of 1.25*10^6 human neuroblastoma cells (SH-SY5Y) with 300 μL Krebs-Ringer-HEPES buffer, 0.1% ascorbic acid, pH 6.2, with, or without, the addition of an alkamide (trans-Pellitorine, dihydropellitorine, spilanthol, wherein when adding the alkamide in concentrations of 0.001 μM, 0.1 μM 1 μM and 10 μM within the Krebs-Ringer-HEPES buffer is adjusted), the serotonin content is detected by means of an enzyme-based method of detection (Serotonin-ELISA sensitive, DLD Diagnostica, Hamburg, Germany). The cells are lysed with a buffer containing sodium lauryl sarcosinate and the DNA content is detected by means of a NanoQuant plate (Tecan, Ménnendorf, Switzerland) to normalize serotonin release.
FIGS. 1a and 1b represent the release of serotonin after incubation with t-pellitorine (2) (FIG. 1A) in concentrations of 0.001 μM, 0.1 μM, 1 μM and 10 μM or other alkamides (FIG. 1B: 1=t-pellitorine, 2=dihydropellitorine, 3=spilanthol)). Results are represented in % relative to control (buffer with 0.1% ethanol) n=3, tR=2. Significant differences of control treatment were tested using a one-way ANOVA with a subsequent Holm-Sidak post hoc test and marked according to the following pattern: *p≦0.05; **p.≦0.01; ***p≦0.001.

## CCCCC/C=C/C=C/C(=O)NCC(C)C [trans-pellitorine, 2E,4E-decadienic acid-N-isobutylamide]
[1]; 0.1 μM
  Fatty acid uptake T/C [%]: 107.8%
[1]; 1 μM
  Fatty acid uptake T/C [%]: 98.7%
[1]; 10 μM
  Fatty acid uptake T/C [%]: 97.8%
[1]; 100 μM
  Fatty acid uptake T/C [%]: 86.0%
[1]; preincubation with 100 μM, 30 minutes
  reduction of free fatty acid uptake in an enterocyte model: 14%
3T3-L1 cells [2]; 0.001 μM
  Lipid accumulation T/C [%]: 94.60%
3T3-L1 cells [2]; 0.1 μM
  Lipid accumulation T/C [%]: 92.94%
3T3-L1 cells [2]; 1 μM
  Lipid accumulation T/C [%]: 93.46%
[3]; 0.001 μM
  Dopamine release T/C [%]: 99.68%
[3]; 0.1 μM
  Dopamine release T/C [%]: 182.7%
[3]; 100 nM, SH-SY5Y cells
  increase of dopamine release: 80%
[3]; 1 μM
  Dopamine release T/C [%]: 106.8%
[3]; 10 μM
  Dopamine release T/C [%]: 127.3%
3T3-L1 cells [4]; 0.1 μM
  Fatty acid uptake T/C [%]: 93.84%
3T3-L1 cells [4]; 1 μM
  Fatty acid uptake T/C [%]: 96.63%
3T3-L1 cells [4]; 10 μM
  Fatty acid uptake T/C [%]: 91.95%
3T3-L1 cells [4]; preincubation with 10 μM
  reduction of fatty acid uptake in adipocytes: 9%
[5]; 0.001 μM
  Serotonin release T/C [%]: 105.3%
[5]; 0.1 μM
  Serotonin release T/C [%]: 140.2%
[5]; 100 nM, SH-SY5Y cells
  increase of the release of serotonin: 40%
[5]; 1 μM
  Serotonin release T/C [%]: 128.8%
[5]; 10 μM
  Serotonin release T/C [%]: 93.02%

## CCCCCCC/C=C/C(=O)NCC(C)C [Dihydropellitorine, 2E-decenoic acid-N-isobutylamide]
[5]; 0.001 μM
  Serotonin release T/C [%]: 140.9%
[5]; 0.1 μM
  Serotonin release T/C [%]: 87.41%
[5]; 1 μM
  Serotonin release T/C [%]: 124.3%
[5]; 10 μM
  Serotonin release T/C [%]: 144.5%

## C/C=C/C=C\CC/C=C/C(=O)NCC(C)C [Spilanthol, 2E,6Z,8E-decatrienoic acid N-isobutylamide]
[5]; 0.001 μM
  Serotonin release T/C [%]: 105.6%
[5]; 0.1 μM
  Serotonin release T/C [%]: 129.9%
[5]; 1 μM
  Serotonin release T/C [%]: 103.8%
[5]; 10 μM
  Serotonin release T/C [%]: 91.77%
